# Legend:
# tumour = conditions: cited from earlier work
# cancer cell lines = assay: NCI in vitro cell screening (SRB, dose-response); assay type: cell-based; conditions: NCI panel, 48 hours
# Description: Uscharin was obtained as in Example 2 and was subjected to in vitro cell screening at the National Cancer Institute (NCI), USA in respect of a panel of cancel cell types organised into subpanels representing leukemia, lung cancers, colon cancer, cancer of the central nervous system, melanoma, ovarian cancer, renal cancer, and in some cases prostate cancer and breast cancer also.
# The standard NCI methodology which was employed is described in Michael R Boyd, Principles and Practices of Oncology, Vol, 3, No. 10 (October 1989) and Monks A. et al., Journal of the National Cancer Institute, Vol. 83, No. 11, (Jun. 5, 1991).
# The Dose-Response Curve is created by plotting the Calculated Percent Growth (PG) of each cell line against the log(10) of the corresponding drug concentration. The cell line curves are grouped by cell type, or subpanel. Mean Log(10) concentrations for all cell lines tested are calculated at three points: where the test compound achieved 50% inhibition of cell growth (GI50), where the test compound achieved 0% cell growth or total growth inhibition (TGI), and where the test compound achiveved 50% cell kill or 50% lethal concentration (LC50). Reference lines are shown at the percent growth values of +50 (GI50), 0 (TGI) and −50 (LC50).
# Percentage Growth (PG)—of the compound on a cell line is currently calculated according to one of the following expressions:
# If (Mean OD(test)−Mean OD(tzero)>=0,
# PG=100×(Mean OD(test)−Mean OD(tzero)/(mean OD(ctrl)−Mean OD(tzero)
# If (Mean OD(test−Mean OD(tzero)<0,
# PG=100×(Mean OD(test)−Mean OD(tzero)/Mean OD(tzero)
# Mean OD (tzero)=The average of optical density measurements of SRB-derived colour just before exposure of cells to the test compound.
# Mean OD (test)=The average of optical density measurements of SRB-derived colour after 48 hours […] of cells to the test compound.
# Mean OD (ctrl)=The average of optical density measurements of SRB-derived colour after 48 hours […] of cells to the test compound.
# primate tumour cells = conditions: cited from earlier work
# SCC-1 cells = assay: Nude mice injected with SCC-1 human tumour cells, drug treatment; assay type: in vivo, mice (BALB/c nude); conditions: nude mice with SCC-1 cells; versus control
# Protocol: The SCCI cells (human tumour cell line) where grown (1×10^5/ml seeding density) in 25 ml RPMI 1640 (10% foetal calf serum, 5% glutamine) in 75 cm^2 tissue culture flasks. The cells were harvested at log growth phase (5 days approximately) and washed once in saline before injection into the mice.
# The “nude” mice (BALB/c nude) are reared and contained within a sealed isolator. The mice were injected with 1×10^7 cells subcut on the back, right hand side near the shoulder blades. After 7 days the mice were split randomly into the study groups (10-15 animals per group). Each was then treated with a different regime, the variable being time between injections and dose of drug at each injection, control groups were also included in the overall plan of the experiement.
# During the trial a daily check was made on the animals and any animal removed if the tumour size became too large (>5-7% total body weight) or if the animal is showing signs of distress. Additional to this the tumour should be assessed every 3-4 days by an independent observer and the result recorded. Once an animal is removed from the study the tumour size, volume and weight was determined and the tumour stored for further cytological study. The reason for the animals removal from the study was also recorded, if this was not due to tumour size. […]
smiles,measurement,setting,value
C[C@@H]1C[C@H](O)[C@]2(O)O[C@@H]3C[C@@]4(C=O)[C@@H](CC[C@@H]5[C@@H]4CC[C@]4(C)[C@@H](C6=CC(=O)OC6)CC[C@]54O)C[C@H]3O[C@@H]2O1 [calotropin],in vivo tumour-inhibiting activity,tumour,no in vivo tumour-inhibiting activity
C[C@H]1O[C@H]2O[C@@H]3C[C@@H]4CC[C@@H]5C(CC[C@]6(C)[C@@H](C7=CC(=O)OC7)CC[C@]56O)[C@@]4(C=O)C[C@H]3O[C@@]2(O)[C@H](O)[C@@H]1O (stereo partly shown) [calotoxin],inhibitory effect on the growth of cancer cell lines in vitro,cancer cell lines,inhibitory effect
"C[C@@H]1CC(=O)[C@]2(O)O[C@@H]3C[C@@]4(C=O)[C@@H](CC[C@@H]5[C@@H]4CC[C@]4(C)[C@@H](C6=CC(=O)OC6)CC[C@]54O)C[C@H]3O[C@@H]2O1 [Uscharidin, uscharidin]",inhibitory effect on the growth of cancer cell lines in vitro,cancer cell lines,inhibitory effect
C[C@]12CC[C@H](O)C[C@@H]1CC[C@@H]1[C@@H]2CC[C@]2(C)[C@@H](C3=CC(=O)OC3)CC[C@]12O [uzarigenin],in vivo tumour-inhibiting activity,tumour,no in vivo tumour-inhibiting activity
same,cytotoxic activity against primate tumour cells,primate tumour cells,cytotoxic activity
"C[C@@H]1C[C@@]2(N=CCS2)[C@]2(O)O[C@@H]3C[C@@]4(C=O)[C@@H](CC[C@@H]5[C@@H]4CC[C@]4(C)[C@@H](C6=CC(=O)OC6)CC[C@]54O)C[C@H]3O[C@@H]2O1 [Uscharin, uscharin]",inhibitory effect on the growth of cancer cell lines in vitro,cancer cell lines,inhibitory effect
same,reduction in percentage mortality due to the cancer cells,SCC-1 cells,up to 45%

# Reference: US6342490B1, “Pharmaceutical composition containing uscharidin or its analogues” (Phyto Corporation Limited, priority 1997, dated 2002)
